Source: patent US20240002391A1, “4-ALKOXYPYRROLO[2,1-F][1,2,4]TRIAZINES AND PREPARATION AND USES THEREOF” (BioSplice Therapeutics, Inc., priority 2022, published 2024)

What follows are compounds tested against recombinant DYRK1A kinase (Homo sapiens (Human), UniProt Q13627) (assay: DYRK1A kinase assay (Ser/Thr 18 peptide Z-lyte FRET)). Conditions: DYRK1A kinase activity, Z-lyte Ser/Thr 18 peptide, 15 μM ATP; method text calls the value IC50; read-out: EC50 (the source's name).
Assay type: biochemical
Outline: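 Z-lyte FRET read-out: coumarin (Em 455) over fluorescein (Em 520) emission ratio, converted to percent phosphorylation after 1 h development. Reaction: 0.25 μg/mL kinase, 15 μM ATP, 4 μM peptide, 1 h RT with compound, duplicate wells. IC50s fitted by non-linear regression.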
With `COc1nc(NC2CCC3(CC2)COC3)nn2ccc(-c3ccc4nnn(CC(F)F)c4c3)c12` [Compound 801, 5-(1-(2,2-Difluoroethyl)-1H-benzo[d][1,2,3]triazol-6-yl)-4-methoxy-N-(2-oxaspiro[3.5]nonan-7-yl)pyrrolo[2,1-f][1,2,4]triazin-2-amine] the IC50 was 3.2 nM.
Compound `COc1nc(N[C@H]2C[C@@](C)(NC(C)=O)C2)nn2ccc(-c3cc(F)c4nnn(CC(F)F)c4c3)c12` [Compound 805, N-((1s,3s)-3-((5-(1-(2,2-Difluoroethyl)-4-fluoro-1H-benzo[d][1,2,3]triazol-6-yl)-4-methoxypyrrolo[2,1-f][1,2,4]triazin-2-yl)amino)-1-methylcyclobutyl)acetamide] has an IC50 of 1.6 nM.
For `COc1nc(N[C@H]2C[C@](C)(NC(C)=O)C2)nn2ccc(-c3cc(F)c4nnn(CC(F)F)c4c3)c12` [Compound 806, N-((1r,3r)-3-((5-(1-(2,2-Difluoroethyl)-4-fluoro-1H-benzo[d][1,2,3]triazol-6-yl)-4-methoxypyrrolo[2,1-f][1,2,4]triazin-2-yl)amino)-1-methylcyclobutyl)acetamide], the IC50 was 1.4 nM.
Compound `COc1nc(N[C@H]2CC[C@@](C)(O)CC2)nn2ccc(-c3cc(F)c4nnn(CC(F)F)c4c3)c12` [Compound 810, (1s,4s)-4-((5-(1-(2,2-Difluoroethyl)-4-fluoro-1H-benzo[d][1,2,3]triazol-6-yl)-4-methoxypyrrolo[2,1-f][1,2,4]triazin-2-yl)amino)-1-methylcyclohexan-1-ol] has an IC50 of 10.9 nM.
`COc1nc(N[C@H]2CC[C@](C)(O)CC2)nn2ccc(-c3cc(F)c4nnn(CC(F)F)c4c3)c12` [Compound 811, (1r,4r)-4-((5-(1-(2,2-Difluoroethyl)-4-fluoro-1H-benzo[d][1,2,3]triazol-6-yl)-4-methoxypyrrolo[2,1-f][1,2,4]triazin-2-yl)amino)-1-methylcyclohexan-1-ol] showed an IC50 of 1.7 nM.
Compound `COc1nc(N[C@@H]2CN(C(C)=O)C[C@@H]2F)nn2ccc(-c3cc(F)c4nnn(CC(F)F)c4c3)c12` [Compound 812, 1-((3R,4S)-3-((5-(1-(2,2-Difluoroethyl)-4-fluoro-1H-benzo[d][1,2,3]triazol-6-yl)-4-methoxypyrrolo[2,1-f][1,2,4]triazin-2-yl)amino)-4-fluoropyrrolidin-1-yl)ethan-1-one] has an IC50 of 2.8 nM.
With `COc1nc(N[C@H]2CCN(C(C)=O)C[C@H]2F)nn2ccc(-c3cc(F)c4nnn(CC(F)F)c4c3)c12` [Compound 816, 1-((3R,4S)-4-((5-(1-(2,2-Difluoroethyl)-4-fluoro-1H-benzo[d][1,2,3]triazol-6-yl)-4-methoxypyrrolo[2,1-f][1,2,4]triazin-2-yl)amino)-3-fluoropiperidin-1-yl)ethan-1-one] the IC50 was 2.8 nM.
With `COc1nc(N[C@H]2CCN(C3COC3)C[C@H]2F)nn2ccc(-c3cc(F)c4nnn(CC(F)F)c4c3)c12` [Compound 818, 5-(1-(2,2-Difluoroethyl)-4-fluoro-1H-benzo[d][1,2,3]triazol-6-yl)-N-((3R,4S)-3-fluoro-1-(oxetan-3-yl)piperidin-4-yl)-4-methoxypyrrolo[2,1-f][1,2,4]triazin-2-amine] the IC50 was 0.8 nM.
`COc1nc(N[C@@H]2CCN(C(C)=O)CC2(F)F)nn2ccc(-c3cc(F)c4nnn(CC(F)F)c4c3)c12` [Compound 821, (R)-1-(4-((5-(1-(2,2-Difluoroethyl)-4-fluoro-1H-benzo[d][1,2,3]triazol-6-yl)-4-methoxypyrrolo[2,1-f][1,2,4]triazin-2-yl)amino)-3,3-difluoropiperidin-1-yl)ethan-1-one] gave an IC50 of 1.9 nM.
With `COc1nc(N[C@@H]2CCN(C3COC3)CC2(F)F)nn2ccc(-c3cc(F)c4nnn(CC(F)F)c4c3)c12` [Compound 822, (R)—N-(3,3-Difluoro-1-(oxetan-3-yl)piperidin-4-yl)-5-(1-(2,2-difluoroethyl)-4-fluoro-1H-benzo[d][1,2,3]triazol-6-yl)-4-methoxypyrrolo[2,1-f][1,2,4]triazin-2-amine] the IC50 was 1.8 nM.
For `COc1nc(N[C@H]2CCN(C(C)=O)C[C@H]2F)nn2cc(F)c(-c3ccc4nnn(CC(F)F)c4c3)c12` [Compound 856, 1-((3R,4S)-4-((5-(1-(2,2-Difluoroethyl)-1H-benzo[d][1,2,3]triazol-6-yl)-6-fluoro-4-methoxypyrrolo[2,1-f][1,2,4]triazin-2-yl)amino)-3-fluoropiperidin-1-yl)ethan-1-one], the IC50 was 1.9 nM.
For `COc1nc(N[C@H]2C[C@@H](OCCO)C2)nn2ccc(-c3ccc4nnn(CC(F)(F)F)c4c3)c12` [Compound 904, 2-(cis-3-((4-Methoxy-5-(1-(2,2,2-trifluoroethyl)-1H-benzo[d][1,2,3]triazol-6-yl)pyrrolo[2,1-f][1,2,4]triazin-2-yl)amino)cyclobutoxy)ethan-1-ol], the IC50 was 1.8 nM.
With `COc1nc(N[C@H]2C[C@@](C)(NC(C)=O)C2)nn2ccc(-c3ccc4nnn(CC(F)(F)F)c4c3)c12` [Compound 905, N-((1s,3s)-3-((4-Methoxy-5-(1-(2,2,2-trifluoroethyl)-1H-benzo[d][1,2,3]triazol-6-yl)pyrrolo[2,1-f][1,2,4]triazin-2-yl)amino)-1-methylcyclobutyl)acetamide] the IC50 was 0.4 nM.
`COc1nc(N[C@H]2CC[C@@](C)(O)CC2)nn2ccc(-c3ccc4nnn(CC(F)(F)F)c4c3)c12` [Compound 910, (1s,4s)-4-((4-Methoxy-5-(1-(2,2,2-trifluoroethyl)-1H-benzo[d][1,2,3]triazol-6-yl)pyrrolo[2,1-f][1,2,4]triazin-2-yl)amino)-1-methylcyclohexan-1-ol] showed an IC50 of 7.7 nM.
In the case of `COc1nc(N[C@H]2CC[C@](C)(O)CC2)nn2ccc(-c3ccc4nnn(CC(F)(F)F)c4c3)c12` [Compound 911, (1r,4r)-4-((4-Methoxy-5-(1-(2,2,2-trifluoroethyl)-1H-benzo[d][1,2,3]triazol-6-yl)pyrrolo[2,1-f][1,2,4]triazin-2-yl)amino)-1-methylcyclohexan-1-ol], the IC50 is reported as 2.1 nM.
With `COc1nc(N[C@@H]2CN(C(C)=O)C[C@@H]2F)nn2ccc(-c3ccc4nnn(CC(F)(F)F)c4c3)c12` [Compound 912, 1-((3S,4R)-3-Fluoro-4-((4-methoxy-5-(1-(2,2,2-trifluoroethyl)-1H-benzo[d][1,2,3]triazol-6-yl)pyrrolo[2,1-f][1,2,4]triazin-2-yl)amino)pyrrolidin-1-yl)ethan-1-one] the IC50 was 0.8 nM.
In the case of `COc1nc(N[C@H]2CCN(C(C)=O)C[C@H]2F)nn2ccc(-c3ccc4nnn(CC(F)(F)F)c4c3)c12` [Compound 916, 1-((3R,4S)-3-Fluoro-4-((4-methoxy-5-(1-(2,2,2-trifluoroethyl)-1H-benzo[d][1,2,3]triazol-6-yl)pyrrolo [2,1-f][1,2,4]triazin-2-yl)amino)piperidin-1-yl)ethan-1-one], the IC50 is reported as 1.4 nM.
`COc1nc(N[C@@H]2CCN(C(C)=O)CC2(F)F)nn2ccc(-c3ccc4nnn(CC(F)(F)F)c4c3)c12` [Compound 921, (R)-1-(3,3-Difluoro-4-((4-methoxy-5-(1-(2,2,2-trifluoroethyl)-1H-benzo[d]1[1,2,3]triazol-6-yl)pyrrolo[2,1-f][1,2,4]triazin-2-yl)amino)piperidin-1-yl)ethan-1-one] gave an IC50 of 1.4 nM.
`COc1nc(N[C@@H]2CCN(C3COC3)CC2(F)F)nn2ccc(-c3ccc4nnn(CC(F)(F)F)c4c3)c12` [Compound 922, (R)—N-(3,3-Difluoro-1-(oxetan-3-yl)piperidin-4-yl)-4-methoxy-5-(1-(2,2,2-trifluoroethyl)-1H-benzo[d][1,2,3]triazol-6-yl)pyrrolo[2,1-f][1,2,4]triazin-2-amine] was tested, and the IC50 was 0.9 nM.
`COc1nc(NCC(C)(C)F)nn2ccc(-c3cnc4nccn4c3)c12` [Compound 924, N-(2-Fluoro-2-methylpropyl)-5-(imidazo[1,2-a]pyrimidin-6-yl)-4-methoxypyrrolo[2,1-f][1,2,4]triazin-2-amine] showed an IC50 of 2.1 nM.
Compound `COCC[C@@H](C)Nc1nc(OC)c2c(-c3cnc4nccn4c3)ccn2n1` [Compound 926, (R)-5-(Imidazo[1,2-a]pyrimidin-6-yl)-4-methoxy-N-(4-methoxybutan-2-yl)pyrrolo[2,1-f][1,2,4]triazin-2-amine] has an IC50 of 5.6 nM.
With `COc1nc(N[C@H](C)C2COC2)nn2ccc(-c3cnc4nccn4c3)c12` [Compound 927, (R)-5-(Imidazo[1,2-a]pyrimidin-6-yl)-4-methoxy-N-(1-(oxetan-3-yl)ethyl)pyrrolo[2,1-f][1,2,4]triazin-2-amine] the IC50 was 1.2 nM.
In the case of `COc1nc(N[C@@H](C)C2COC2)nn2ccc(-c3cnc4nccn4c3)c12` [Compound 928, (S)-5-(Imidazo[1,2-a]pyrimidin-6-yl)-4-methoxy-N-(1-(oxetan-3-yl)ethyl)pyrrolo[2,1-f][1,2,4]triazin-2-amine], the IC50 is reported as 2 nM.
For `COc1nc(N[C@@H]2CC[C@@H]2OC)nn2ccc(-c3cnc4nccn4c3)c12` [Compound 929, 5-(Imidazo[1,2-a]pyrimidin-6-yl)-4-methoxy-N-((1R,2S)-2-methoxycyclobutyl)pyrrolo[2,1-f][1,2,4]triazin-2-amine], the IC50 was 19.8 nM.
Work on `COc1nc(N[C@@H]2CC[C@H]2OC)nn2ccc(-c3cnc4nccn4c3)c12` [Compound 930, 5-(Imidazo[1,2-a]pyrimidin-6-yl)-4-methoxy-N-((1R,2R)-2-methoxycyclobutyl)pyrrolo[2,1-f][1,2,4]triazin-2-amine] yielded an IC50 of 6.9 nM.
For `CCO[C@H]1C[C@@H](Nc2nc(OC)c3c(-c4cnc5nccn5c4)ccn3n2)C1` [Compound 931, N-(cis-3-Ethoxycyclobutyl)-5-(imidazo[1,2-a]pyrimidin-6-yl)-4-methoxypyrrolo[2,1-f][1,2,4]triazin-2-amine], the IC50 was 1.5 nM.
`COc1nc(N[C@H]2C[C@@](C)(NC(C)=O)C2)nn2ccc(-c3cnc4nccn4c3)c12` [Compound 934, N-((1s,3s)-3-((5-(Imidazo[1,2-a]pyrimidin-6-yl)-4-methoxypyrrolo[2,1-f][1,2,4]triazin-2-yl)amino)-1-methylcyclobutyl)acetamide] showed an IC50 of 1.6 nM.
